The target of data set [1] is T1, human S1P2 (EDG-5) (Homo sapiens, UniProt O95136).
T1 construct: expressed in transfected cells; host or cells: CHO cells (G418 selection)
In words: S1P2 (EDG-5) antagonistic activity by monitoring the change in intracellular calcium ion concentration (human). It is filed as cell-based. The note with it: CHO cells overexpressing human S1P2 (EDG-5) gene; suppression of S1P (30 or 300 nM)-induced intracellular calcium increase, Fura2-AM. On the procedure: (§1) Chinese hamster ovary (CHO) cells overexpressing the human S1P2 (EDG-5) gene were cultured in a Ham's F12 medium containing 10% fetal bovine serum (FBS), an antibiotic/antifungal agent and G418. CHO cells overexpressing the rat S1P2 (EDG-5) gene were cultured in a Ham's F12 medium containing 10% FBS, penicillin/streptomycin and blasticidin S. The cultured cells were incubated in a Fura2-AM solution (5 μM) [a Ham's F12 medium containing FBS (10%), HEPES buffer (20 mM, pH 7.2 to 7.5) and probenecid (2.5 mM)] at 37° C. for 60 minutes. The cells were washed twice with a Hanks' balanced saline containing HEPES buffer (20 mM, pH 7.2 to 7.5) and probenecid (2.5 mM) and immersed in the same solution. A plate was mounted on a fluorescence-based drug screening system and the intracellular calcium ion concentration was measured for 30 seconds without stimulation. A test substance (the final concentration of human S1P2: 0.25 nM to 25 μM and the final concentration of rat S1P2: 0.25 nM to 2.5 μM) or a dimethyl sulphoxide (DMSO) solution was added and after 3 minutes S1P (final concentration: 30 or 300 nM) was added and the increase in the intracellular calcium ion concentration before and after the addition of S1P was measured with an interval of 3 seconds (excitation wavelength: 340 nm and 380 nm, fluorescence wavelength: 540 nm).
(§2) The S1P2 (EDG-5) antagonistic activity was calculated as a suppression (%) from the following formula, wherein A is a control value which was a peak value after addition of S1P (final concentration: 30 or 300 nM) in the wells added with DMSO without a test substance and B is an increased amount after addition of S1P in the cells treated with the test substance: [M 1] Suppression (%)=[(A−B)/A]×100
(§3) Comparative compounds used were the compounds disclosed in Example 1 (64) (hereinafter referred to as comparative compound A) and Example 1 (85) (hereinafter referred to as comparative compound B) in Patent Document 3 (WO 2004/002531). The structural formulae of the comparative compounds are shown below respectively.

Data set [2] deals with T2, rat S1P2 (EDG-5) (Rattus norvegicus, UniProt P47752).
T2 construct: expressed in transfected cells; host or cells: CHO cells (blasticidin S selection)
T2 sequence (P47752 whole entry): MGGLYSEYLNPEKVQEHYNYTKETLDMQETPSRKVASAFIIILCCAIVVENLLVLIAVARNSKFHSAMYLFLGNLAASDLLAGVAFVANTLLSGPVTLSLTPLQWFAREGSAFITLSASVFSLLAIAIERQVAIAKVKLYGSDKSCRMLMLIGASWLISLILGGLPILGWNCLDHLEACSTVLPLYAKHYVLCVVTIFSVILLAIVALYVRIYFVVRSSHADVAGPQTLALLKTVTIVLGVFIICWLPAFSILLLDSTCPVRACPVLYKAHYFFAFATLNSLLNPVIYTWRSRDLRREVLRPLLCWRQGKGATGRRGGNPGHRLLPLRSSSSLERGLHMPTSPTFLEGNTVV
In words: S1P2 (EDG-5) antagonistic activity by monitoring the change in intracellular calcium ion concentration (rat). It is filed as cell-based. As to conditions: CHO cells overexpressing rat S1P2 (EDG-5) gene; suppression of S1P (30 or 300 nM)-induced intracellular calcium increase, Fura2-AM. The method, then:
as §1, §2, §3

Data set [3] in a line: Solubility measurement. As to conditions: aqueous buffer, kinetic from dmso stock; second solution of Japanese Pharmacopoeia (pH 6.8), room temperature, stirring 5 hours, LC-MS/MS. The data set is classed as physicochemical. The method, then: A solution for obtaining a calibration curve was prepared by diluting a test substance (10 mmol/L, DMSO solution) in acetonitrile and adding acetonitrile containing an internal standard substance (warfarin) to adjust to 0.1, 0.4 and 2 μmol/L. A sample solution was prepared by adding to 495 μL (pH 6.8) of the second solution defined in Japanese Pharmacopoeia (a solution used was obtained by adding water to 250 mL of a 0.2 mol/L potassium dihydrogen phosphate reagent solution and 118 mL of a 0.2 mol/L sodium hydroxide reagent solution to adjust to 1000 mL) 5 μL of a test substance (10 mmol/L, DMSO solution), stirring at room temperature for 5 hours, transferring the obtained solution to a plate with a filter for vacuum filtration, diluting 20 μL of the filtrate with acetonitrile and adding acetonitrile containing the internal standard. The solution for obtaining a calibration curve and the sample solution (5 μL each) were injected to LC-MS/MS (Discovery Max from Thermo Scientific) for quantification (quantification range: 0.1 to 2 μmol/L). The solubility was calculated by multiplying the quantified value by 50. When the quantified value was outside of the quantification range, the solubility was expressed as <5 μmol/L or 100 μmol/L.

Values after ≈ are worked out from the molar mass of the structure shown. Where only a bound is given, the exact number is not on record here.

T1 sequence (O95136 whole entry): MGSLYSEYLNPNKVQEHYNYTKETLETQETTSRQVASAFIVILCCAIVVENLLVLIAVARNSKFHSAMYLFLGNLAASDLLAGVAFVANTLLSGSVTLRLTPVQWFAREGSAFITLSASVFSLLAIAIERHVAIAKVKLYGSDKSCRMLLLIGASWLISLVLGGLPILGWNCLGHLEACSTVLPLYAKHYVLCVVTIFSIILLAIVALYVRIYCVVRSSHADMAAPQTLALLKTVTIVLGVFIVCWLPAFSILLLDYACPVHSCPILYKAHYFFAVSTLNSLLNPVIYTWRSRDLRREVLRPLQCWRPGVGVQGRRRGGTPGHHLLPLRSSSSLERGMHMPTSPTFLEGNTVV

For orientation: IC50 means the midpoint of a concentration-inhibition curve. By solubility is commonly meant the dissolved amount per volume that the medium holds. Lower therefore signals little dissolved substance. As for `O=C(Nc1cc(Oc2ccc(C3(C(=O)O)CCCC3)cc2)cc(C(F)(F)F)c1)N1CCC(O)(C2CCCCC2)C1` (stereo not shown) [Example 5 (7), 1-{4-[3-{[(3-cyclohexyl-3-hydroxy-1-pyrrolidinyl)carbonyl]amino}-5-(trifluoromethyl)phenoxy]phenyl}cyclopentanecarboxylic acid], the IC50 amounted to 8.4 nM in data set [1] and 5.1 nM in data set [2]. In addition, the solubility at 5 h in data set [3] was determined as 74 µM (≈ 41.5 µg/mL).
For `CS(=O)(=O)NC(=O)c1ccc(Oc2cc(NC(=O)N3CCC(O)(C4CCCC4)CC3)cc(C(F)(F)F)c2)cc1` [Example 5 (1), 4-cyclopentyl-4-hydroxy-N-[3-{4-[(methylsulphonyl)carbamoyl]phenoxy}-5-(trifluoromethyl)phenyl]-1-piperidine carboxamide], the values for the IC50 in data set [1] and in data set [2] were 4.6 nM and 9.4 nM, respectively. In data set [3], the solubility at 5 h amounted to 72 µM (≈ 41 µg/mL).
`CCC(CC)CC1(O)CCN(C(=O)Nc2cc(F)cc(C(F)(F)F)c2)CC1` [Comparative compound A, reference compound]: the solubility at 5 h in data set [3] is < 5 µM.
Take `CCC(CC)CC1(O)CCN(C(=O)Nc2cccc(Oc3ccc(F)cc3)c2)CC1` [Comparative compound B, reference compound]: the IC50 came to 1200 nM in data set [1] and 27 nM in data set [2]. Further, in data set [3], the solubility at 5 h is < 5 µM.
As to `CC(C)CC1(O)CCN(C(=O)Nc2cc(C(=O)Oc3ccc(C(C)(C)C(=O)O)cc3)cc(C(F)(F)F)c2)CC1` [Example 8, 2-(4-{[3-{[(4-hydroxy-4-isobutyl-1-piperidinyl)carbonyl]amino}-5-(trifluoromethyl)benzoyl]oxy}phenyl)-2-methylpropanoic acid], the results for the IC50 in data set [1] and in data set [2] were 7.3 nM and 3 nM, respectively. The same molecule had a solubility at 5 h in data set [3] of 90 µM (≈ 49.6 µg/mL).

The record behind these values is patent US9676719B2, “Phenyl derivative” (ONO PHARMACEUTICAL CO., LTD., priority 2013, dated 2017).
